Measured values as given in US12427189B2, “Vaccine comprising epitope of heat shock protein, and use thereof” (ASTON SCI. CO., LTD., priority 2018, dated 2025).

Experiments:
human PBMCs = experiment: IFN-γ and IL-10 ELISPOT screen of HSP90 peptides in human PBMCs; type: cell-based; details: human PBMCs from 10 volunteer donors
Method: Serum samples were obtained after written consent, from 25 HER2 positive breast cancer patient, and 25 volunteer donors at the Korea University Anam Hospital (Approval number: 2016AN0090). All sera were aliquoted and stored at −80° C. For human T cell response studies, peripheral blood mononuclear cells (PBMC) were obtained after informed consent, from 10 breast cancer patients, and 10 volunteer donors. Cells were ficolled and cryopreserved as previously described (Guy C T, et al. (1992) Expression of the neu protooncogene in the mammary epithelium of transgenic mice induces metastatic disease. Proceedings of the National Academy of Sciences of the United States of America 89(22):10578-10582). PBMC samples were obtained at the General Clinical Research Center Facility at the University of Washington (Approval number: NIH MO1-RR-00037)
(§1) Color development was stopped by washing under tap water.
This study profiled the peptide sequences with the highest recognition of HSP90 peptide and MHC class II peptide binding by a scoring system combining multiple MHC class II peptide binding algorithms. FIG. 2 depicts the entire HSP90 peptide sequence and identified immunogenic “hotspots”. Among them, 11 peptides with the highest scores in the binding affinity scoring system were selected. The selected 11 15-mer HSP90 peptides (Table 2) were screened for T helper (Th)1 or Th2 immunity in human PBMCs from 10 volunteer donors by IFN-γ ELISPOT assay using as a representative Th1 cytokine, IFN-γ, and a Th2 cytokine, Interleukine-10 (IL-10).

Splenocytes = experiment: Immunogenicity of HSP90 peptides in immunized FVB mice, IFN-γ ELISPOT of splenocytes; type: in vivo; details: mice immunized s.c. 100 μg single peptide in CFA/IFA, 3 times; compared with control
Method: To test immunogenicity of the selected peptides in murine model, six to eight-week-old female FVB mice were obtained from Koatech (Gyeonggi, Korea). The mice were immunized subcutaneous (s.c) injection with 100 μg of respective HSP90 peptides of SEQ ID NOs: 1, 2, and 5-14 or Phosphate Buffered Saline (PBS) as a mixture in complete Freund's adjuvant (CFA; F5881, Sigma, MO, USA)/incomplete Freund's adjuvant (IFA; F5506, Sigma). Three immunizations were given 10 days apart. Ten days after the third vaccination, spleen and serum was harvested from each mouse.
as §1

[1] = system: mouse mammary carcinoma (MMC) cells; experiment: Survival analysis of HSP90 peptides and STING agonist in MMC tumor-bearing mice; type: in vivo, neu-transgenic mice; details: monitored until 90 days after tumor implantation; tumor >2,000 mm^3 considered dead
Excerpt: (§2) To evaluate effects of the combination therapeutic with HSP90 peptides and STING agonist (tlrl-dmx, InvivoGen, CA, USA), MMC cells (5×10^5) were implanted with s.c in neu-transgenic mice. […] Three immunizations were given 10 days apart. 15 days after the third vaccination, spleen, tumor and serum was harvested in mice. To evaluate survival analysis of the combination effects with HSP90 peptides and STING agonist, mice were monitored two time per week until 90 days following tumor implantation and when tumor reached a size greater than 2,000 mm^3, mice were considered dead.

[2] = system: mouse mammary carcinoma (MMC) cells; experiment: Combination of HSP90 peptides and STING agonist in MMC tumor-bearing mice; type: in vivo, neu-transgenic mice
Excerpt: as §2
The levels of HSP90 and HER2 ECD were evaluated by ELISA in the serum of HER2 positive breast cancer patients and mice. Briefly, HSP90 (ADI-SPP-776, Enzo Life Science, NY, USA) and HER2 ECD (YCP5341, Speed Biosystems) recombinant proteins were coated a 96-well microplate with 50 μL per well of the diluted concentration of 20 μg/mL in carbonate buffer. Standard was coated with IgG dilution of human and mouse to serial concentration (0.64˜0.005 μg/mL). […] Samples (200 μL) were added to the wells and incubated overnight at 4° C. […] The optical density of each well at 450 nm was determined using an IMARKTM™ microplate reader (Bio-Rad Laboratories, Hercules, CA, USA). […]

MMC cells [3] = experiment: Cell viability MTT assay, MMC cells; type: cell-based, mouse
Excerpt: (§3) Neu-transgenic mice [strain: FVB/N-Tg(MMTVneu)202Mul] were obtained from the Jackson Laboratory (Bar Harbor, ME). These mice harbor non-mutated, non-activated rat neu under the control of the mouse mammary tumor virus (MMTV) promoter/enhancer. The neu transgene is expressed at low levels in normal mammary epithelium, salivary gland, and lung. Until the age of eight month, 35% of female neu-transgenic mice spontaneously develop mammary carcinomas that display high neu-expression levels. Mouse mammary carcinoma (MMC) cell line was established from a spontaneous tumor in neu-transgenic mouse. MMC cells were maintained in RPMI-1640 medium (ThermoFisher scientific, Utah, USA) supplemented with 10% fetal bovine serum, 100 units/ml penicillin, […] streptomycin and 2 mM L-glutamine, and were incubated in a humidified 37° C. incubator with 5% CO2. Lapatinib was purchased from LC laboratories (L-4899, MA, USA). […]
(§4) Cells were seeded at a density of 1×10^5 cells in 6-well plates. […] Cell viability was quantitatively analysed using the 3-[4,5-dimethylthiazol-2-yl]-2,5-diphenyltetrazolium (MTT) assay. […] The absorbance of the converted MTT dye was measured at 540 nm using an IMARK™ microplate reader (Bio-Rad Laboratories). Cell viability was expressed as the relative percentage compared to untreated cells; experimental error was also calculated. […] The percent of cell survival was calculated using […] […]

LR-MMC cells [4] = details: per 10 high-power field, IHC
MMC cells [5] = experiment: Lapatinib treatment of MMC tumor-bearing mice; type: in vivo, neu-transgenic mice; details: day 34, lapatinib 75 mg/kg oral gavage 5 times weekly
Method: (§5) To establishment lapatinib-resistant mouse model, MMC and lapatinib-resistant MMC cells (1×106) were injected flank with s.c in neu-transgenic mice.

LR-MMC cells [6] = experiment: Cell viability MTT assay, lapatinib-resistant MMC cells; type: cell-based, mouse
Excerpt: as §3, §4

LR-MMC cells [7] = experiment: Lapatinib treatment of LR-MMC tumor-bearing mice; type: in vivo, neu-transgenic mice; details: lapatinib 75 mg/kg oral gavage 5 times weekly
Method: as §5

Compound | Th1 and Th2 immune responses (IFN-γ and IL-10 ELISPOT) (human PBMCs) | antigen-specific T cell response (IFN-γ ELISPOT) (Splenocytes) | other results
SELLRYYTSASGDEM (HSP90 p582-596) [HSP90 15-mer peptide] | weak Th1 and Th2 immune responses |  | 
LYVRRVFIMDNCEEL (HSP90 p485-499) [HSP90 15-mer peptide] | predominantly Th1 immune responses | significantly higher | 
QSKILKVIRKNLVKK (HSP90 p527-541) [HSP90 15-mer peptide] | predominantly Th1 immune responses | significantly higher | 
SVKDLVILLYETALL (HSP90 p780-794) [HSP90 15-mer peptide] | weak Th1 and Th2 immune responses |  | 
LEFRALLFVPRRAPF (HSP90 p457-471) [HSP90 15-mer peptide] | weak Th1 and Th2 immune responses | significantly higher | 
IVKKHSQFIGYPITL (HSP90 p328-342) [HSP90 15-mer peptide] | strong Th1 and Th2 immune responses |  | 
TDTGEPMGRGTKVIL (HSP90 p296-310) [HSP90 15-mer peptide] | weak Th1 and Th2 immune responses |  | 
YSNKEIFLRELISNS (HSP90 p160-174) [HSP90 15-mer peptide] | weak Th1 and Th2 immune responses | significantly higher | 
Cc1ccc2c(=O)c3cccc(CC(=O)O)c3oc2c1C [STING agonist] |  |  | median survival [1]: 79 days; mean tumor volume (mean±SD) ([2]; day 35, treatment from tumor >100 mm^3, 3 times): 647±66 mm^3; expression levels of mouse HER2 ECD (ELISA) ([2]; serum): 89 µg/mL
QFGVGFYSAYLVAEK (HSP90 p255-269) [HSP90 15-mer peptide] | weak Th1 and Th2 immune responses |  | 
LYKDLQPFILLRLLM (HSP90 p109-123) [HSP90 15-mer peptide] | strong Th1 and Th2 immune responses |  | 
CS(=O)(=O)CCNCc1ccc(-c2ccc3ncnc(Nc4ccc(OCc5cccc(F)c5)c(Cl)c4)c3c2)o1 [lapatinib] |  |  | sensitivity after lapatinib treatment (MMC cells [3]; MMC cells): sensitive in a dose-dependent manner; IC50 (MMC cells [3]; Mus musculus, parent MMC cells): 76 nM; infiltrated CD8+ T cells in tumor (Mean median) (LR-MMC cells [4]): 6.6 counts; mean tumor volume (mean±SD) (MMC cells [5]): 1711±397 mm^3; apoptosis (LR-MMC cells [6]; LR-MMC cells compared with MMC cells): did not induce significant apoptosis; IC50 (LR-MMC cells [6]; Mus musculus, LR-MMC cells): 390 nM; mean tumor volume (mean±SD) (LR-MMC cells [7]): 1212±523 mm^3
